Data on one compound can be found in patent US20040028749A1, “Treating inflammation and associated complications” (priority 2000, published 2004).

One experiment deals with EPO or LPO. To be noted: O2^.− generating system. The protocol:
NO decay was determined in phosphate buffer in the absence versus presence of plasma levels of halides using an NO-selective electrode. NO-saturated buffer was added to a continuously stirred reaction mixture.

The conditions of experiment [1]: intranasal 1 mM SCN^−, 1 mM Br^− or 100 μM NO2^−.
Method: The following experiment is performed to determine if by directly manipulating the relative substrate halide composition of the intrabronchial luminal contents, the severity of the resulting EPO-mediated oxidative damage and so the severity of the induced pathologies can be influenced. […] From the day before initiation of aerosol ovalbumin challenge, four groups of guinea pigs (n=15) are subjected to intranasal instillation of 300 μL of PBS (100 mM Cl^−), PBS+1 mM NaSCN, PBS+1 mM NaBr, or PBS+100 μmol NaNO2 in each nostril. Intranasal instillation is performed every 6 hours until the time of analysis. The numbers of animals in each group is determined from power calculations assuming unpaired design. A group size of 15 animals per group allows for detecting a change in Br—Y, PC50, and histologic severity index amongst the OVA-challenged animal of ≧125% of the S.D. of the experimental groups with 90% power, P<0.05.
As for Section VI, Example 10, pulmonary functions, and chloro-, bromo-, and NO2—Y in BAL and whole lung homogenates are determined. […] Multiple linear regression is used to determine factors responsible for changes in PC50 or histologic severity of airway damage. PC50 or histologic severity is treated as a continuous variable and correlated Br—Y and NO2—Y levels in BAL and whole lung by multiple regression.
For experiment [2] the following is noted: wild type mouse.
Method: Mice were sensitized by intranasal instillation of Aspergillus and aeroallogen challenged one month later with aerosol saline (control) or Aspergillus (antigen challenged). At 2 days before the one-month aeroallogen challenge, one group of antigen-challenged animals received i.p. 0.5 mL of 0.1% KSCN and 0.1% KSCN in drinking water. Three days after the aeroallogen challenge, both groups were challenged with intranasal inoculums of Candida and 6 hours later subjected to BAL and the content of supernatant protein Br—Y determined using stable isotope dilution GC-MS.
The conditions of experiment [3]: SCN^− supplementation.
Method: Four experimental groups, each comprised of 15 guinea pigs are utilized for these studies.
The first group is the control and receives KCl in lieu of KClO4 to control for the effect of potassium. […] Perchlorate treatments are initiated three days prior to OVA aerosol challenges and maintained throughout the experimental period until the time of analysis. Specimens are analyzed according to the protocol described. The experimental groups are compared using an appropriate statistical method (i.e., parametric or non-parametric) based upon ANOVA.
All four groups are then pooled to determine correlations between (i) methacholine challenge PC50 and (ii) BAL and whole lung Br—Y and NO2—Y levels. Correlations were also determined between (i) histologic severity and (ii) BAL and/or whole lung Br—Y and NO2—Y levels.
Experiment [4] relates to EPO. The protocol: The EPO/NO2^−/H2O2 system generates reactive nitrogen species that generates bioactive eicosanoids, e.g. hydroxyeicosatetraenoic acids (HETEs) from unilamellar vesicles comprised of 1-palmitoyl-2-arachidonyl-sn-glycero-3-phosphocholine (PAPC). […] Reaction mixtures consisting of 0.8 mg lipid/mL PAPC, 60 nM EPO, 100 μM NO2^−, 100 ng/mL glucose oxidase, 100 μg/mL glucose were incubated for 2 hours at 37° C. HETEs were analyzed by lipid extraction and HPLC with on-line electrospray ionization tandem mass spectometry (LC/MS/MS).

The test system of the next experiment is LPO, or EPO. To be noted: 100 μM SCN^−, LPO or EPO present.
For experiment [5], the target named is EPO (Homo sapiens, UniProt P11678). The note with it: physiologic concentrations (20-120 μM) of SCN^−; 100 μM Br, 100 mM Cl^−. An excerpt: All other reagents were obtained from Sigma Chemical Co. (St. Louis, Mo.).
EPO (Homo sapiens, UniProt P11678), sequence (P11678 251-715 limits assumed): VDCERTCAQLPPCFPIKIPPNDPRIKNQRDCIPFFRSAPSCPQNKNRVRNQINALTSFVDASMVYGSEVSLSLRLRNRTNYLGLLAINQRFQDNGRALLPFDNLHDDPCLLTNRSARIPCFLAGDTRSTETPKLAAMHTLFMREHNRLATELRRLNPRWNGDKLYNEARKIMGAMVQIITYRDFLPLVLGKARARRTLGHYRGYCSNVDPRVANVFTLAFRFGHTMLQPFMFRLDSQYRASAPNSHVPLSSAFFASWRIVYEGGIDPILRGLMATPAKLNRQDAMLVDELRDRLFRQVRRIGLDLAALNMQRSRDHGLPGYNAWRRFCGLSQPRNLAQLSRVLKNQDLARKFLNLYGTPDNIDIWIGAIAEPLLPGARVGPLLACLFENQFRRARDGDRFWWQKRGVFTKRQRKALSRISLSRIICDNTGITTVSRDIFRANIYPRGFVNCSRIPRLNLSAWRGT
EPO (Homo sapiens, UniProt P11678), sequence (P11678 140-250 limits assumed): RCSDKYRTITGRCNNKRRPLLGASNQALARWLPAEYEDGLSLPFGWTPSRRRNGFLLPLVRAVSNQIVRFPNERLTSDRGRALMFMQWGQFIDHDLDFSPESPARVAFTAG

`N#CS` [SCN^−, thiocyanate]: in the experiment with EPO or LPO, the “peroxidase-mediated NO consumption” value was “attenuation/inhibition of peroxidase-mediated NO consumption”. Also, the “levels of Br—Y and NO2—Y and severity of resulting asthma” value in experiment [1] was “ameliorates”. In experiment [2] (SCN supplemented), the “BrY reduced from w.t. antigen-challenged” value is “BrY 86% reduced”. In experiment [2] (antigen challenge, 0.1% KSCN i.p. and in drinking water), the Lavage fluid bromotyrosine was 196 ± 103 μmol Br—Y/μmol Y. For the same compound, the “Br—Y and NO2—Y levels, functional and histologic pulmonary pathology” value in experiment [3] is recorded as “will reduce”. Also, the “HETE generation from PAPC vesicles by EPO/SCN^−/H2O2 system” value in the experiment with EPO [4] (100 μM SCN^−) is recorded as “no detectable HETEs”. The “HETE generation from PAPC vesicles by EPO/NO2^−/H2O2 system” value in the experiment on EPO [4] (physiological concentration of SCN^−) is “severely attenuated”. Moreover, the “mean lung Br—Y/Y” value (NaSCN i.p. and 0.2% in drinking water, OVA challenge) amounted to 0.93 mmol/mol. Besides, the “rise of Br—Y/Y after OVA challenge” value (dietary supplementation with SCN^− prior to OVA challenge) is on record as “completely abrogated”. In addition, the “relaxation of preconstricted bronchial rings in response to NO” value in the experiment with LPO, or EPO is recorded as “do so when high physiologic concentrations of SCN^− are added”. The “EPO production of HOBr” value on EPO [5] is “blocked”.
